# Data published in patent US8729047B2, “Compositions for inhibiting redox-sensitive GTPases” (Board of Regents, The University of Texas System, priority 2010, dated 2014).
# pKd: −log10 of the molar value. Like-named read-outs stand apart in the source and are kept apart here.
# Legend:
# Rac1 = Rac1 (Homo sapiens, UniProt P63000); experiment: Guanine nucleotide exchange of [3H]GDP-loaded GTPase with 6-TGDP (FIG. 13A); format: binding; set-up: made in house; host or cells: E. coli
# Experimental: (§1) FIG. 13. Guanine nucleotide exchange of small GTPases with 6-TGDP. (A) To monitor 6-TGDP-mediated GTPase GDP dissociation, [^3H]GDP-loaded GTPase (1 μM) was incubated with 6-TGDP (0-2000 μM) for 1 h. (B) To monitor GTPase 6-TGDP dissociation by GDP (0-2000 μM) in the presence and absence of dithiothreitol (DTT), 6-TGDP-loaded GTPase (˜1 μM) was treated with .NO2 (˜3 μM) under anaerobic conditions and was incubated with various concentrations of [^3H]GDP (0-2000 μM) in the presence and absence of DTT (10 mM) for 1 h. For all assays, aliquots were withdrawn and spotted onto nitrocellulose filters. The filters were then washed three times with an assay buffer, and radioactivity was determined using a Beckman-Coulter scintillation counter. The resultant radioactivity (dpm) values associated with GTPase-bound [^3H]GDP were converted into the fraction of mol nucleotide per mol total GTPase. The data presented represent mean and standard error values from triplicate measurements. The apparent dissociation constants (appKD values) of GTPase 6-TGDP association ([^3H]GDP dissociation, A); and 6-TGDP dissociation ([3H]GDP association, B) were obtained by fitting the data to a simple dissociation and association, respectively. (A) The ^appKD values of Ras, RhoC, RhoA and Rac1 for 6-TGDP, are, respectively, 2300, 230, 224, and 245 μM [6-TGDP]. (B) The appKD values of RhoC with and without DTT are, respectively, 560, and 1000 μM [[^3H]GDP], whereas the ^appKD values of Ras with and without DTT are 530, and 520 μM [[^3H]GDP], respectively. The standard errors of each ^appKD value are less than 10% of their given values, and regression values associated with the fit were r^2>0.9560.
# A kinetic assay method using radiolabeled GDP ([^3H]GDP) was established. The apparent dissociation constants (^appKD 6-TGDP) of Rho GTPases (including RhoA, Cdc42, and Rac1/2/3) and Ras with 6-TGDP were determined (FIG. 13). The results of this preliminary kinetic study provided strong support for the mechanism proposed for the role of 6-TGNP in RhoC inactivation (FIG. 7).
# The true dissociation constant (^trueKD 6-TGDP) of Ras, RhoC, RhoA and Rac1 for 6-TGDP was then calculated to be ˜20.7 pM, 212 μM, 208 μM, and 158 μM [6-TGDP] by using a compensation equation, ^trueKD 6-TGDP=^appKD 6-TGDP/(1+[GDP]/^trueKD GDP) (95), in conjunction with the values given [(^appKD 6-TGDP of Ras, RhoC, RhoA, and Rac1=2300, 230, 224, and 245 μM (FIG. 13) and ^trueKD GDP=9 pM, 12 μM, 13 μM and 1.8 μM, respectively. The ^trueKD GDP of Ras, RhoA and Rac1 was determined previously (Lenzen et al. Biochemistry 37, 7420-7430 (1998); Heo et al. Biochemistry 44, 6573-6585 (2005)) and the ^trueKD GDP of RhoC was further determined. Example: ^trueKD 6-TGDP for Ras=2300 μM/(1+1 μM GDP/[…])=[…] [6-TGDP]].
# Rho proteins = experiment: Binding affinity of 6-TGDP compared with GDP (Example 3); conditions: all examined Rho proteins; FIG. 16A
# Experimental: (a) A competitive binding assay was performed to determine the binding affinity of Rho GTPase and 6-TGDP. The radiolabeled [^3H]GDP-loaded Rho protein (1 μM) was titrated with various concentrations of 6-TGDP. The titrated Rho protein sample then was spotted onto a nitrocellulose membrane. Each membrane was washed three times with the assay buffer, and radioactivity was determined using a Beckman-Coulter scintillation counter. The radioactivity of the sample (Rho protein-bound [^3H]GDP) was converted into, and thus plotted, as the fraction of mol GDP per mol total Rho protein. The apparent dissociation constant (^appKD) of the Rho protein with [^3H]GDP in the presence of 6-TGDP was determined by using Prism software to fit the titration curve to a hyperbola.
# The RhoC and mutant RhoC bound GDP also can be competitively displaced with 6-TGDP (FIG. 16A). The binding affinities that 6-TGDP has for all of these examined Rho proteins are ˜2-fold weaker than that of GDP for Rho proteins (FIG. 16A).
# RhoA = molecular target: T1, RhoA (Homo sapiens, UniProt P61586); conditions: known value (Morgan et al.); read-out: trueKD for GDP; cited from earlier work
# T1 construct: made in house; host or cells: E. coli
# T1 sequence (P61586 whole entry, species assumed): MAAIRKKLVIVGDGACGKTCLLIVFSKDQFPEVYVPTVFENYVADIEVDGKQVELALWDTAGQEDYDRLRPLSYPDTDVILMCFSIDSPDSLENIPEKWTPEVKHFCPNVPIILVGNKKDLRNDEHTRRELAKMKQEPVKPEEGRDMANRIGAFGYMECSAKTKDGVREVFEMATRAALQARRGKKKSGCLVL
# Ras [1] = molecular target: T2, Ras (Homo sapiens, UniProt P01112); experiment: [3H]GDP displacement of 6-TGDP from .NO2-treated 6-TGDP-loaded GTPase with/without DTT (FIG. 13B); format: binding
# T2 sequence (P01112 whole entry): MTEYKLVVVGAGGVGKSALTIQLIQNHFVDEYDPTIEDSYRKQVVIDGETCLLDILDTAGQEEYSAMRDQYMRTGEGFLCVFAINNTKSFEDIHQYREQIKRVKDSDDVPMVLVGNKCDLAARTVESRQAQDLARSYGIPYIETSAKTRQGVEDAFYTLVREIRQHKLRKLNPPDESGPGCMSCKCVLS
# Experimental: as §1
# (§2) The ^appKD [3H]GDP was converted into ^trueKD [3H]GDP by using a compensation equation, ^trueKD [3H]GDP=^appKD [3H]GDP/(1+[6-TGDP]/^trueKD GDP) (Segel, I. H. (1993) Enzyme kinetics, A Wiley-Interscience publication, New York) (see above)). The calculated ^trueKD [3H]GDP values of RhoC in the presence and absence of DTT were estimated to be 516 μM and 923 μM, respectively. […] Treatment with DTT, a reducing agent, disrupts the disulfide bond between RhoC and 6-TGDP, liberating 6-TGDP from RhoC, and thereby permitting [^3H]GDP to bind to RhoC.
# RhoC = RhoC (Homo sapiens, UniProt P08134); experiment: as above; format: binding; set-up: made in house; host or cells: E. coli
# Sequence of RhoC (P08134 whole entry): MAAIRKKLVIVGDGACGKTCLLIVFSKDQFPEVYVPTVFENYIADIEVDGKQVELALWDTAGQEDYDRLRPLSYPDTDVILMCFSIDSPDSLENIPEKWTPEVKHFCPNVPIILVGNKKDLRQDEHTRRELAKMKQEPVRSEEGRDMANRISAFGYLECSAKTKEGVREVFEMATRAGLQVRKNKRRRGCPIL
# Experimental: as §1, §2
# Ras [2] = molecular target: T2, Ras; conditions: determined previously (Lenzen et al.; Heo et al.); read-out: trueKD GDP; cited from earlier work
# [3] = absence of DTT, calculated by compensation equation, read-out: trueKD [3H]GDP
# [4] = presence of DTT, calculated by compensation equation, read-out: trueKD [3H]GDP
# [5] = with DTT 10 mM, 6-TGDP-loaded GTPase ~1 μM treated with .NO2 ~3 μM, anaerobic, 1 h, read-out: appKD for [3H]GDP (6-TGDP dissociation)
# [6] = without DTT, 6-TGDP-loaded GTPase ~1 μM treated with .NO2 ~3 μM, anaerobic, 1 h, read-out: appKD for [3H]GDP (6-TGDP dissociation)
SMILES,"pKd (Rac1; [3H]GDP-loaded GTPase 1 μM, 6-TGDP 0-2000 μM, 1 h, FIG. 13A, read-out: appKD for 6-TGDP)","pKd (Rac1; calculated by compensation equation from appKD 6-TGDP and trueKD GDP, read-out: trueKD 6-TGDP)",binding affinity of 6-TGDP weaker than that of GDP (Rho proteins),pKd (RhoA),pKd (Ras [1]; [3]),pKd (Ras [1]; [4]),pKd (Ras [1]; [5]),pKd (Ras [1]; [6]),pKd (RhoC; [3]),pKd (RhoC; [4]),pKd (RhoC; [5]),pKd (RhoC; [6]),pKd (Ras [2])
"Nc1nc2c(ncn2[C@@H]2O[C@H](COP(=O)(O)OP(=O)(O)O)[C@@H](O)[C@H]2O)c(=S)[nH]1 [6-TGDP, 6-thioguanosine diphosphate]",3.61,3.80,~2 fold,–,–,–,–,–,–,–,–,–,–
Nc1nc2c(ncn2[C@@H]2O[C@H](COP(=O)(O)OP(=O)(O)O)[C@@H](O)[C@H]2O)c(=O)[nH]1 [GDP],–,–,–,4.89,8.32,8.33,3.28,3.28,3.03,3.29,3.25,3.00,11.05
